One data set deals with eyelids/ocular surface. Nature of the data set: Cooling after wiping closed eyelids with a towelette. Type of data set: in vivo, human. The note with it: eye wipes, 1 mg/ml in 5%-95% v/v ethanol-distilled water. The protocol:
A second method of testing was to take a towelette saturated with a test solution of the cooling agent and to wipe the towelette over the dosed eyelids. The presence or absence of cooling (or irritanty, if applicable) sensations was then recorded at 10 minute intervals until the cessation of coolness in two successive intervals.
(§1) For testing of cooling compounds delivered to the eyelids with a towelette, the following procedures were used in the experiments of Table 3 and in Study 5 and 6. Three ml of liquid suspension or solution in distilled water was added to a 0.4 g cotton rectangle (50 mm×60 mm) (CS-being, Daisan Cotton, Japan) and individually sealed with a vaccuum apparatus (Foodsaver®, Jarden Corp.). Samples were stored in the freezer or refrigerator and thawed to room temperature before use. Wiping with the cotton pad delivers 40 to 45 μl of liquid composition to the eyelids ([…] to 22 μl per eye). So, if the concentration of the test substance was 1 mg/ml, the dose delivered to both eyes is a total of ˜40 to […], or ˜20 μg per eye. This method allows a reliable delivery of test substances because the dissolved or suspended particles in solution are evenly dispersed on the cotton pad in an excess volume of liquid. The presence or absence of cooling sensations was noted as being present or absent at 5 to 10 min intervals until no coolness was noticeable in two successive test intervals. Only the duration of cooling on the ocular surface was recorded, without an attempt to quantify the intensity of the sensation.

Data set [1] is described as follows: Log P of tested compounds. Type of data set: physicochemical.
Another data set has as its system sleepiness and fatigue. Description: Study 4: eye wipes against sleepiness and fatigue. Type of data set: in vivo, human. The conditions noted are these: for onset and intensity of awakening effect: eye wipes, compared with the other analogs. How it is done: as §1
Three high-powered business executives who regularly spent long hours at the negotiating tables or at meetings felt “burnt out” by their professional activities and frequently felt tired and sleepy-eyed in the social arena. They volunteered to try eye wipes containing 1.0 mg/ml of (R)-2-[((1R,2S,5R)-2-isopropyl-5-methyl-cyclohexanecarbonyl)-amino]-propionic acid isopropyl ester (D-Ala-OiPr, No. 1, in table 1) to see if the eye wipes will refresh and awaken their interest during meetings. […] They became alert and vigilant and more pro-active in their social milieu.

The test system of another data set is philtrum skin. Nature of the data set: Cooling sensation after ointment applied to philtrum skin. Type of data set: in vivo, human. The note with it: for Duration of cooling, Philtrum Skin: 5 mg/ml in Aquaphor ointment on philtrum skin; for duration of cooling (FIG. 1): 40 to 70 mg of 1% wt/vol (10 mg/ml) ointment on skin above the upper lips. The text has this: A reliable place for topical application is the skin above the upper lip (above the vermilion border of the lips), on the philtrum, lateral to the philtrum until the nasolabial folds, and on the lower nostrils (subnasale). This part of the face is known to be densely innervated with cold receptors, second only to the surfaces of the eyeball and anogenitalia.
The intensity of the subjective skin sensation is rated as 0, 1, 2 or 3 with: 0 as no change; 1 as slight coolness, cold, or tingling; 2 as clear-cut signal of coolness, cold, or tingling; and 3 as robust cooling or cold. The intervals for recording sensations are 5 to 10 minutes, until two successive zeroes are obtained. The results (shown in FIG. 1) are averaged values of 4 to 6 separate trials in the same individual. The data are plotted using SigmaPlot® (Systat Software, Point Richmond Calif.) and a smoothing function with a negative exponential was used for analysis and statistical fit of the results. Confirmatory trials of cooling action of the long-acting NACE compounds were obtained in 2 to 4 individuals but not quantified for some because of the large number of chemicals that were evaluated
The onset of drug action is taken as the time to reach 2 units of coolness intensity, and offset of drug action is the time when coolness intensity drops below 2, after previously surpassing 2 units. The duration of cooling action is defined as the offset time minus the onset time. […] The quality of the sensation is noted, for example, as pure refreshing coolness, or if the sensation is accompanied by irritation (stinging or burning). The quality of the sensation is not rated for intensity.
For bioassay on the skin, approximately 30 mg was stirred and dissolved in 3 g of warm liquid Aquaphor® ointment to a yield 5 to 10 mg/ml (0.5% to 1.0 wt/vol) ointment. After cooling, 40 to 70 mg of the solid ointment was placed on the tip of a plastic stick and applied to the skin above the upper lip, on the philtrum, and lateral to the philtrum, up to the nasolabial folds, of test subjects and the onset and duration of cooling sensations noted.
The intensity of the subjective skin sensation was rated as 0, 1, 2 or 3 with: 0 as no change; 1 as slight coolness, cold, or tingling; 2 as clear signal of coolness, cold, or tingling; and 3 as robust cooling or cold. The intervals for recording sensations were 5 to 10 minutes, until two successive zeroes were obtained. The results (shown in FIG. 1) are averaged values of 4 to 6 separate trials in the same individual. The data are plotted using SigmaPlot® (Systat Software, Point Richmond, Calif., USA) and a smoothing function with a negative exponential was used for analysis and statistical fit of the results.
The onset of drug action was taken as the time to reach 2 units of coolness intensity, and offset of drug action was the time when coolness intensity drops below 2, after previously surpassing 2 units. The duration of cooling action was defined as the offset time minus the onset time. […] The quality of the sensation was also noted: such as pure refreshing coolness, or if the sensation was accompanied by irritation (stinging or burning). The quality of the sensation was not rated for intensity.
For the results in FIG. 1, the test compounds were singly applied to the skin above the upper lips at a 40 to 70 mg dose of a 1% wt/vol (10 mg/ml) ointment. Subsequently, for the results shown in Table 3, the test dose on the philtrum was reduced to a 0.5% wt/vol (5 mg/ml) ointment. The reason for choosing a lower dose was to increase the number of trials per individual and to have a reduced chance of substances accumulating in the skin.

The test system of the next data set is periorbital skin. Description: Ointment applied to periorbital skin: coolness, eye irritancy, alerting (Study 3). It counts as in vivo, human. The text has this: The ointment was also applied to the periorbital skin (upper and lower eyelids and on skin adjacent to the lateral canthus) for tests of irritancy near the eyes, and the subject is asked if irritation is present or absent. The intensity of the eye sensation is not rated.
For tests of irritancy near the eyes in Study 3 and 4, the ointment was applied to the periorbital skin (upper and lower eyelids and on skin adjacent to the lateral canthus), and the subject asked if irritation is present or absent. The intensity of the eye sensation is not rated, but just noted as being present or absent
A 1% preparation of 2-isopropyl-5-methyl-cyclohexanecarbonyl D-alanine methyl ester in Aquaphor® ointment was applied bilaterally to the periorbital area of four individuals. […] This experiment was then repeated three days later in the evening with the same individuals whose occupations required daylong activities before a computer screen.

The next data set relates to face. Nature of the data set: Study 2: towelette used to wipe the face in hot weather. It counts as in vivo, human. The note with it: for duration of pleasant cooling sensations: 10% propylene glycol/90% water. The protocol: 2-Isopropyl-5-methyl-cyclohexanecarbonyl D-alanine methyl ester was dissolved in warm 10% propylene-glycoV90% distilled water solution to give a concentration of either 0.1 or 0.5% wt/vol (1 or 5 mg/mL). Six to seven milliliters of these solutions were then applied with a pipette onto a paper napkin (Luncheon Napkins, Kirkland Signature brand from Costco, Inc.) The napkin was 1-ply with a 30.4×29.5 cm dimension. Each napkin was then hermetically sealed in a plastic envelope (Foodsaver by Tilia). On two separate occasions involving golfing trips to Los Angeles, Calif., USA, where air temperatures exceeded […] (90° F.), these towelettes were used to wipe the face. Pleasant cooling sensations were obtained that lasted for about 10 minute for the 0.1% concentration towelette and about 60 minutes for the 0.5% towelette.

In a further data set the test system is periorbital pain. Nature of the data set: Study 6: eye wipes in persistent periorbital pain. Type of data set: in vivo, human. The conditions noted are these: eye wipes 1.0 mg/ml, one patient, three occasions. The protocol: as §1
A person suffered from “dry eyes” or keratoconjunctivitis sicca which was managed by artificial tears and eye drops containing lubricants. […]

The test system of the next data set is allergic conjunctivitis. Nature of the data set: Study 5: eye wipes in allergic conjunctivitis. It counts as in vivo, human. How it is done:
as §1
A laboratory scientist suffered from seasonal allergic conjunctivitis. This condition was severely aggravated when […] started doing experiments with laboratory animals (rats and mice) and […] became sensitized to the associated allergens. The conjunctivitis was not relieved by oral or topical eye drop antihistamines and the subject was reluctant to consider the use of anti-inflammatory steroid ointments. Upon examination, their eyes were blood-shot and watery and they kept rubbing their eyelids with their fingers even though they knew this action may further aggravate the itch and discomfort. They volunteered to try eye wipes containing 1.0 mg/ml of (R)-2-[((1 R,2S,5R)-2-isopropyl-5-methyl-cyclohexanecarbonyl)-amino]-acetic isopropyl ester (Gly-OiPr, No. 2, in table 1). The relief of itch and discomfort was obtained within 5 minutes and lasted for at least four hours.

The test system of data set [2] is dorsal surface of the tongue. The conditions noted are these: threshold amount producing cooling on tongue of human volunteers; values from Watson US 04178459; cited from earlier work.
Where [3] appears, read: 1% in Aquaphor ointment, periorbital area, four individuals.
[4] abbreviates: eye wipes 1.0 mg/ml, one subject.

Each structure is given as a SMILES string.

The term logP denotes the decadic logarithm of the partition coefficient of the neutral form, usually between octanol and water. A higher logP goes with a more lipophilic compound. As for `CCOC(=O)[C@@H](C)NC(=O)[C@@H]1C[C@H](C)CC[C@H]1C(C)C` [D-Ala Et Ester, (R)-2-[((1R,2S,5R)-2-isopropyl-5-methyl-cyclohexanecarbonyl)-amino]-propionic acid ethyl ester], in the data set with eyelids/ocular surface, the “Duration of cooling, Eyelids/Ocular Surface” value turned out to be 180 min. Moreover, the log partition coefficient (logP) in data set [1] was determined as 3.1. In addition, in the data set with sleepiness and fatigue, the “onset and intensity of awakening effect” value was “faster onset and more intense awakening effect”. For the same molecule, in the data set on philtrum skin, the “Duration of cooling, Philtrum Skin” value was determined as 103 min and the “duration of cooling (FIG. 1)” value is 2.4 h.
Turning to `COC(=O)[C@@H](C)NC(=O)[C@@H]1C[C@H](C)CC[C@H]1C(C)C` [D-Ala Me Ester, (R)-2-[((1R,2S,5R)-2-isopropyl-5-methyl-cyclohexanecarbonyl)-amino]-propionic acid methyl ester], in the data set with eyelids/ocular surface, the “Duration of cooling, Eyelids/Ocular Surface” value was 120 min. The logP in data set [1] came out at 2.8. Besides, in the data set with periorbital skin (setting [3]), the “Onset of coolness on the skin” value was found to be 1 min, the “duration of alerting effect” value is reported as “about one” and the “duration of coolness on the skin (average)” value amounted to 30 min. Moreover, in the data set with periorbital skin (ointment on periorbital area), the “irritation of skin / eye surfaces” value was “No irritation of the eye surfaces was noted”. In the data set with face (0.1% wt/vol (1 mg/mL) towelette), the “duration of pleasant cooling sensations” value is recorded as “about 10 minute”. Also, in the data set on face (0.1 or 0.5% towelette), the eye irritation entry is recorded as “No eye irritation was observed”. Besides, the “duration of pleasant cooling sensations” value in the data set with face (0.5% wt/vol (5 mg/mL) towelette) is “about 60 minutes”. Moreover, in the data set on sleepiness and fatigue, the “onset and intensity of awakening effect” value is “faster onset and more intense awakening effect”. In the data set with philtrum skin, the “Duration of cooling, Philtrum Skin” value came to 77 min and the “duration of cooling (FIG. 1)” value was found to be 1.9 h.
For the molecule `CC(C)OC(=O)[C@@H](C)NC(=O)[C@@H]1C[C@H](C)CC[C@H]1C(C)C` [D-Ala iPr Ester, (R)-2-[((1R,2S,5R)-2-isopropyl-5-methyl-cyclohexanecarbonyl)-amino]-propionic acid isopropyl ester], in the data set with eyelids/ocular surface, the “Duration of cooling, Eyelids/Ocular Surface” value amounted to 360 min. In addition, in [1], the logP worked out at 3.7. The “effect on sleepiness and fatigue” value in the data set on sleepiness and fatigue (eye wipes 1.0 mg/ml, three executives) is “the sense of sleepiness and fatigue was reduced for the next several hours”. In addition, the “Duration of cooling, Philtrum Skin” value with philtrum skin stood at 34 min.
Consider `CC(C)OC(=O)CNC(=O)[C@@H]1C[C@H](C)CC[C@H]1C(C)C` [Gly iPr Ester, (R)-2-[((1R,2S,5R)-2-isopropyl-5-methyl-cyclohexanecarbonyl)-amino]-acetic acid isopropyl ester], for which the “Duration of cooling, Eyelids/Ocular Surface” value in the data set with eyelids/ocular surface was determined as 300 min. The molecule also came in with a logP in data set [1] of 3.3. The “relief of periorbital pain” value with periorbital pain was “immediate relief”. Also, in the data set on allergic conjunctivitis (setting [4]), the “duration of relief of itch and discomfort” value is “at least four”; the “time to relief of itch and discomfort” value was at most 5 min. In addition, the “over-all itchiness and redness” value in the data set on allergic conjunctivitis (wipes used as needed for three days) is “over-all itchiness and redness were reduced significantly”. For the same molecule, in the data set with philtrum skin, the “Duration of cooling, Philtrum Skin” value is 27 min.
By Log P is commonly meant a log measure of how a compound divides between an organic and an aqueous phase. A higher Log P goes with higher lipophilicity. In the case of `CCNC(=O)C1CC(C)CCC1C(C)C` (stereo not shown) [WS-3, reference compound], the lipophilicity (Log P) in data set [1] is recorded as 3.7. Further, in the data set with periorbital skin (ointment on periorbital area), the “irritation of skin / eye surfaces” value is “produced significant skin and eye irritation”. For the same molecule, the “skin coolness and refreshment” value with periorbital skin (ointment on periorbital area, conditions similar to Study 3) was “did not enhance skin coolness or provide satisfactory refreshment”. For the same molecule, the “duration of cooling (FIG. 1)” value in the data set with philtrum skin was 0.3 h. Also, the “duration of action / onset on philtrum skin” value in the data set with philtrum skin (Study 1) was “short duration of action (less than 1 hour) on the philtrum skin or slow onset (more than 5 minutes)”. Besides, the “Threshold tongue” value in data set [2] is 0.2 µg.

(Values after patent US20110082204A1, “N-alkylcarbonyl-amino acid ester and N-alkylcarbonyl-amino lactone compounds and their use” (priority 2006, published 2011).)
